Measurements published in article PMC9421654, “Discovery of Substituted Di(pyridin-2-yl)-1,2,4-thiadiazol-5-amines as Novel Macrofilaricidal Compounds for the Treatment of Human Filarial Infections” (Journal of Medicinal Chemistry, 2022).
In brackets after ≈: the same amount, converted by molar mass. Several values for one entry are separate records, joined by “and”; a condition that tells them apart may be missing. Identical values can stand only once. Like-named read-outs stand apart in the source and are kept apart here. Marks after values point to notes of the source that are not given here.

Columns and labels:
[1] = Liver S9 metabolic stability assay, human; assay type: in vitro ADME; conditions: 3 μM, 60 min
Outline: (§1)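 Rat and human liver S9 (0.75 and 1.2 mg/ml) with 1 mM NADPH, 0.5 mM UDPGA, 2.5 mM GSH, 0.05 mg/ml PAPS, 3µM substrate, 60 min at 37 °C in Tris/MgCl2 pH 7.4. Mouse microsomes 0.3 mg/mL, 1 mM NADPH, 3µM, 30 min, phosphate pH 7.4. LC-MS/MS, % remaining, triplicate.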

[2] = Kinetic solubility measurement; assay type: physicochemical; conditions: 10 mM DMSO stock solutions
Outline: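 Human and rat liver microsomes (0.3 mg/mL) with 1 mM NADPH and 3µM substrate, 30 minutes at 37 °C in pH 7.4 phosphate/MgCl2, triplicate; LC-MS/MS percentage remaining. LogD: octanol/aqueous buffer (pH 7.4, 2.2, 6.8, 5), 24 h shaking at room temperature. Kinetic solubility: 200 µM, 2% DMSO, 24 h, filtered.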

[3] = Liver S9 metabolic stability assay, rat; assay type: in vitro ADME; conditions: 3 μM, 60 min
Outline: as §1

[4] = biological target: T1, hERG potassium channels (KCNH2, expressed in HEK293 cells) (Homo sapiens, UniProt Q12809); assay: hERG inhibition; assay type: cell-based
T1 construct: expressed in transfected cells

O. volvulus L5 larvae [5] = assay: O. volvulus L5 ex vivo assay, MTT viability; assay type: cell-based, Onchocerca volvulus; conditions: Day 21, 1 uM
Experimental: This culturing medium was then added in transwell 24-well plates containing human umbilical vein endothelial cell (HUVEC) monolayers, containing the L4 larvae. A week prior to conducting an assay, the cultured O. volvulus larvae (L5) were transferred into a Petri dish containing fresh medium. […] After the transfer of O. volvulus L5 to the plates, the test compounds were dissolved in DMSO, added to each well, and incubated at 37 °C in a 5% CO2. The media containing freshly prepared compounds were partially replaced every 2–3 days for 14 days. After 14 days, the media were completely replaced. The untreated control contains the media described above with a final concentration of 0.05% DMSO. […] The motility was measured visually by two operators. […] Following washout and incubation during 1 h in PBS under 5% CO2, worms were observed under an inverted microscope. Worms were considered dead if no staining or less than 50% within the worm was observed. Otherwise, if worms stained blue or more than 50% stained, then they are considered alive. All test treatments were performed in duplicates. Significance was determined using a t test.

O. volvulus L5 larvae [6] = assay: O. volvulus L5 ex vivo assay, motility; assay type: cell-based; conditions: Onchocerca volvulus, 504 h, read-out: O. volvulus L5 % inhibition of motility
Experimental: O. volvulus larvae (L4) were prepared using cryopreserved O. volvulus L3 cultured in a medium containing 1:1 NCTC-109 and IMDM (Iscove’s modified Dulbecco’s medium) supplemented with Glutamax (1×) and 2× Antibiotic-Antimycotic (Life Technologies). This culturing medium was then added in transwell 24-well plates containing human umbilical vein endothelial cell (HUVEC) monolayers, containing the L4 larvae. A week prior to conducting an assay, the cultured O. volvulus larvae (L5) were transferred into a Petri dish containing fresh medium. Aliquots of 8–10 worms were retrieved from the Petri dish and placed inside new transwells over newly seeded HUVEC monolayers in the medium described above. After the transfer of O. volvulus L5 to the plates, the test compounds were dissolved in DMSO, added to each well, and incubated at 37 °C in a 5% CO2. The media containing freshly prepared compounds were partially replaced every 2–3 days for 14 days. After 14 days, the media were completely replaced. The untreated control contains the media described above with a final concentration of 0.05% DMSO. The motility was measured every 2–3 days with the following scale: 100% motility, constant coiling movement; 75% motility, slower coiling; 50% motility, slow and intermittent movement; 25% motility, very slow movement or twitching; and 0% motility, no movement. The motility was measured visually by two operators. On day 28, the viability of O. volvulus L5 was measured by MTT. Following washout and incubation during 1 h in PBS under 5% CO2, worms were observed under an inverted microscope. Worms were considered dead if no staining or less than 50% within the worm was observed. Otherwise, if worms stained blue or more than 50% stained, then they are considered alive. All test treatments were performed in duplicates. Significance was determined using a t test.

Mouse pharmacokinetics = assay type: in vivo; conditions: for Vd: in vivo, read-out: Vdss; for Vd / Cl: IV 2 mg/kg; for bioavailability: PO 10 mg/kg vs IV 2 mg/kg
Excerpt: All animal experiments were approved by the Institutional Animal Care and Use Committee (IACUC) of Bristol Myers Squibb.

[7] = system: CEREP receptor, ion channel, transporter panel; assay: Eurofins CEREP non-kinase panel, binding; conditions: binding at 10 μM
Experimental: [36] Eurofins Cerep, Le Bois l’Evêque B.P. 30001, 86 600 Celle l’Evescault, France. Compound binding was calculated as a % inhibition of the binding of a radioactively labeled ligand specific for each target.

[8] = system: L. sigmodontis adult worms; conditions: for reduction of adult worm burden: mice, 30 mg/kg BID; for adult worm burden reduction: figure prints reduction as negative value
[9] = male CD-1 mouse, PO 10 mg/kg suspension
[10] = male CD-1 mouse, PO 30 mg/kg suspension
[11] = plasma, male CD-1 mouse, PO 10 mg/kg suspension, read-out: Tmax
[12] = female BALB/c mouse, PO 30 mg/kg

T1 sequence (Q12809 whole entry): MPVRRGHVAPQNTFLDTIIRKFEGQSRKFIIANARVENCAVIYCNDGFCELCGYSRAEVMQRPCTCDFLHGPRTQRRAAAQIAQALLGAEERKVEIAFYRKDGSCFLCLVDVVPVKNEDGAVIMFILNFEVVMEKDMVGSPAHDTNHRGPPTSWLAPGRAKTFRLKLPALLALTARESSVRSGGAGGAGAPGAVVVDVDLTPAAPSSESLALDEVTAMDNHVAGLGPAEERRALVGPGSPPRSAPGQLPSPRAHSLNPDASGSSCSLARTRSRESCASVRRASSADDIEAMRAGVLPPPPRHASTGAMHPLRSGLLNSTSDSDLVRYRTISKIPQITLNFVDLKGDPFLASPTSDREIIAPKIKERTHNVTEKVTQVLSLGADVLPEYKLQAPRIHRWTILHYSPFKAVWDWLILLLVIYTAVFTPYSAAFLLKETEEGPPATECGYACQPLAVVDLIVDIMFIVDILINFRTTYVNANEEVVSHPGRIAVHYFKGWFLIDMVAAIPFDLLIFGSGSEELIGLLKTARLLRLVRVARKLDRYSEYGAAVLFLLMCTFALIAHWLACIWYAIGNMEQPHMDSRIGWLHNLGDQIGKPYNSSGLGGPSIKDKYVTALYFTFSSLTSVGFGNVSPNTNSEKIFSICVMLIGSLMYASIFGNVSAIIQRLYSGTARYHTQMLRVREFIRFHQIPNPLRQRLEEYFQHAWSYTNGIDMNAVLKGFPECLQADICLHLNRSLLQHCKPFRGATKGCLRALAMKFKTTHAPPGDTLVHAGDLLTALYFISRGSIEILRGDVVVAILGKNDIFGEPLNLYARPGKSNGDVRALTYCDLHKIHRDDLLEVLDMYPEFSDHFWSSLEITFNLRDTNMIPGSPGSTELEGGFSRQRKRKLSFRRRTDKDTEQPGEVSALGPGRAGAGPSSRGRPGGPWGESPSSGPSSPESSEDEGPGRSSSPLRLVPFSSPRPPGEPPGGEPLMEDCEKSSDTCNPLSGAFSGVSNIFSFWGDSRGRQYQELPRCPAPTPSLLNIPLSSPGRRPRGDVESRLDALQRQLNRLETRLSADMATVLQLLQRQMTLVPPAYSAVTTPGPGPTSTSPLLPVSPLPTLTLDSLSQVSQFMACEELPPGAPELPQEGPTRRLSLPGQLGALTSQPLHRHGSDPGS

| Structure (SMILES) | Human S9 metabolic stability [1] [% remaining] | solubility kinetic at 24 h [2] [µM] | Rat S9 metabolic stability [3] [% remaining] | IC50 ([4]; supplement) [µM] | O. volvulus L5 % inhibition of viability (O. volvulus L5 larvae [5]) [%] | AUC(0-inf) (Mouse pharmacokinetics; [10]) | Cmax (Mouse pharmacokinetics; [10]) [nM] | Tmax (Mouse pharmacokinetics; [10]) | inhibition at 1 µM (O. volvulus L5 larvae [6]) [%] | further results |
| --- | --- | --- | --- | --- | --- | --- | --- | --- | --- | --- |
| Cc1ccnc(-c2nsc(Nc3ncccc3C(F)(F)F)n2)c1 [Compound 26, 3-(4-Methylpyridin-2-yl)-N-(3-(trifluoromethyl)pyridin-2-yl)-1,2,4-thiadiazol-5-amine] | 56 | 0.9 (≈ 0.304 µg/mL) | 61 | > 30 |  |  |  |  |  |  |
| CC(=O)N(C)c1cccnc1Nc1nc(-c2ccc(OC(C)C)cn2)ns1 [Compound 47, N-(2-((3-(5-Isopropoxypyridin-2-yl)-1,2,4-thiadiazol-5-yl)amino)pyridin-3-yl)-N-methylacetamide] |  | 109 (≈ 41.9 µg/mL) |  |  | 100 | 121 ^h μM·h | 13900 | 0.50 ^h |  | inhibition at 1 µM (O. volvulus L5 larvae [6]; Day 21, 1 uM): 100%; Kp (Mouse pharmacokinetics; brain and plasma, male CD-1 mouse, PO 30 mg/kg, based on AUC0-t, read-out: brain/plasma [b]/[p]): 0.08; Vd (Mouse pharmacokinetics; male CD-1 mouse): 0.74 ± 0.08 L/kg; Cl (Mouse pharmacokinetics; male CD-1 mouse): 3.6 ± 0.22 mL/min/kg; AUC(0-inf) (Mouse pharmacokinetics; [9]): 68.1NC ^j μM·h; Cmax (Mouse pharmacokinetics; [9]): 5270 ± 830 nM; Tmax (Mouse pharmacokinetics; [11]): 240 ± 168 min; bioavailability (Mouse pharmacokinetics; plasma, male CD-1 mouse): 57%; CEREP receptor, ion channel, transporter panel: targets bound / tested ([7]; targets with >50%): 1/76 |
| Cc1cccnc1Nc1nc(-c2ccc(OC3CCN(C4CC4)CC3)cn2)ns1 [Compound 19, 3-[5-[(1-Cyclopropyl-4-piperidyl)oxy]-2-pyridyl]-N-(3-methyl-2-pyridyl)-1,2,4-thiadiazol-5-amine] | 83 | 3.05 (≈ 1.25 µg/mL) | 76 |  |  | 6.23 ± 6.16 µM·h | 2080 ± 1220 | 30 ± 0 min |  | IC50 [4]: 3.46 µM |
| CC(C)c1ccnc(-c2nsc(Nc3ncccc3C(F)(F)F)n2)c1 [Compound 27] | 45 | 1.6 (≈ 0.585 µg/mL) | 27 |  |  |  |  |  | 100 |  |
| CC(C)Oc1ccc(-c2nsc(Nc3ncccc3C(C)C)n2)nc1 [Compound 25, 3-(5-Isopropoxy-2-pyridyl)-N-(3-isopropyl-2-pyridyl)-1,2,4-thiadiazol-5-amine] | 99 | 2.58 (≈ 0.917 µg/mL) | 82 |  |  | 20.0 ± 9.9 µM·h | 2050 ± 270 | 144 ± 228 min |  |  |
| CNc1cccnc1Nc1nc(-c2ccc(OC(C)C)cn2)ns1 [Compound 30] | 86 | 1.9 (≈ 0.651 µg/mL) | 73 | 16 |  |  |  |  |  |  |
| CC(C)Oc1ccc(-c2nsc(Nc3ncccc3N(C)C(=O)C3CC3)n2)nc1 [Compound 50, N-(2-((3-(5-Isopropoxypyridin-2-yl)-1,2,4-thiadiazol-5-yl)amino)pyridin-3-yl)-N-methylcyclopropanecarboxamide] |  | 2.71 (≈ 1.11 µg/mL) |  |  | 100 |  |  |  |  | inhibition at 1 µM (O. volvulus L5 larvae [6]; Day 21, 1 uM): 100%; Kp (Mouse pharmacokinetics; male, CD-1, mouse, brain and plasma, brain to plasma ratio, dose not given, read-out: [b]/[p]): 0.11 |
| Cc1cccnc1Nc1nc(-c2ccc(OC3CC4(C3)CN(C3CC3)C4)cn2)ns1 [Compound 12, 3-[5-[(2-Cyclopropyl-2-azaspiro[3.3]heptan-6-yl)oxy]-2-pyridyl]-N-(3-methyl-2-pyridyl)-1,2,4-thiadiazol-5-mine] | 58 | 13.1 (≈ 5.5 µg/mL) | 53 | 0.2 |  |  |  |  |  | IC50 [4]: 0.203 µM |
| CN(C)c1cccnc1Nc1nc(-c2ccc(OC3CC3)cn2)ns1 [Compound 32] | 100 | 8.92 (≈ 3.16 µg/mL) | 91 |  | 83 | 3.85 ± 0.76 µM·h | 2340 ± 520 | 30 ± 0 min | 100 | reduction of adult worm burden ([8]; 7 days of dosing): 70%; adult worm burden reduction ([8]; naturally infected mice, 30 mg/kg BID 6d oral): -69.9% |
| Cc1cccnc1Nc1nc(-c2ccc(OC(C)C)cn2)ns1 [Compound 10, 3-(5-Isopropoxypyridin-2-yl)-N-(3-methylpyridin-2-yl)-1,2,4-thiadiazol-5-amine] | 100 | 3.2 (≈ 1.05 µg/mL) | 100 | > 30 |  | 26.0 ± 9.0 µM·h | 8260 ± 2600 | 60 ± 36 min |  | tolerability in mice ([8]; reason for lowering the dose from 30 to 10 mg/kg): tolerability issues |
| CC(C)Oc1ccc(-c2nsc(Nc3ncccc3N(C)C)n2)nc1 [Compound 31, N^2-(3-(5-Isopropoxypyridin-2-yl)-1,2,4-thiadiazol-5-yl)-N3,N3-dimethylpyridine-2,3-diamine] | 86 | 22.5 (≈ 8.02 µg/mL) | 79 | 8 | 100 |  |  |  | 100 | Kp at 2 h (Mouse pharmacokinetics; brain and plasma, female BALB/c mouse, PO 30 mg/kg, 2 h, read-out: brain/plasma [b]/[p]): 1.1; AUC(0-inf) (Mouse pharmacokinetics; [12]): 4.66 ± 0.54 µM·h; Cmax (Mouse pharmacokinetics; [12]): 5180 nM; Tmax (Mouse pharmacokinetics; [12]): 30 min; Vd (Mouse pharmacokinetics; male CD-1 mouse): 3.01 L/kg; Cl (Mouse pharmacokinetics; male CD-1 mouse): 62.9 mL/min/kg; AUC(0-inf) (Mouse pharmacokinetics; [9]): 0.94 ^h μM·h; Cmax (Mouse pharmacokinetics; [9]): 650 nM; Tmax (Mouse pharmacokinetics; [11]): 30 min; bioavailability (Mouse pharmacokinetics; plasma, male CD-1 mouse): 13%; CEREP receptor, ion channel, transporter panel: targets bound / tested ([7]; targets with >70%): 5/76; adult worm burden reduction ([8]; mice infected SC with 40 L3 larvae, 30 mg/kg BID 7d oral): -97.1%; reduction of adult worm burden ([8]; 6 days of dosing): 97% |
| Cc1cccnc1Nc1nc(-c2ccc(OC3CC3)cn2)ns1 [Compound 11, 3-(5-Cyclopropoxypyridin-2-yl)-N-(3-methylpyridin-2-yl)-1,2,4-thiadiazol-5-amine] | 76 | 1.84 (≈ 0.599 µg/mL) | 61 | > 30 | 100 |  |  |  | 100 |  |
| CC(C)c1ccnc(-c2nsc(Nc3cc(C(F)(F)F)ccn3)n2)c1 [Compound 35, 3-(4-Isopropylpyridin-2-yl)-N-(4-(trifluoromethyl)pyridin-2-yl)-1,2,4-thiadiazol-5-amine] | 65 | < 1 | 45 |  |  |  | 210 ± 20 | 108 ± 102 min |  | AUC(0-inf) (Mouse pharmacokinetics; male CD-1 mouse, PO 30 mg/kg suspension, 30 mg/kg): 1.7 µM·h and 1.73 ± 0.59 µM·h |
